In US10023558B2, “Compounds” (CHIESI FARMACEUTICI S.P.A., priority 2016, dated 2018):
pIC50: −log10 of the molar value.

Target: T1, human neutrophil elastase (HNE) (Homo sapiens, UniProt P08246)
T1 construct: purchased Sigma E8140
T1 sequence (P08246 30-247 limits assumed): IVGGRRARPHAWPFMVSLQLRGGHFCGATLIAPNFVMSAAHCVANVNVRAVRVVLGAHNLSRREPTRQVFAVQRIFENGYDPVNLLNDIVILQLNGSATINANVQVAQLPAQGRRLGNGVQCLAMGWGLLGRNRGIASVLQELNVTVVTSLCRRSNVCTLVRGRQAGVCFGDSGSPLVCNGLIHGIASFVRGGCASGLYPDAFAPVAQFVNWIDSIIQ
Experiment: HNE Enzyme Assay (fluorogenic peptide substrate MeOSuc-Ala-Ala-Pro-Val-AMC)
Format: biochemical
Settings: human leukocyte elastase 0.00072 U/mL, substrate 100 μM, 25° C., 30 minutes, at least two separate experiments; read-out: HNE inhibition (IC50 values)
Method: Compounds of this invention were tested for potency in a human neutrophil elastase (HNE) enzyme activity assay.
Assays were performed in 96-well plates in a total assay volume of 100 μL. The final concentration of elastase enzyme (human leukocyte elastase, Sigma E8140) was 0.00072 U/mL. The peptide substrate (MeOSuc-Ala-Ala-Pro-Val-AMC, Calbiochem #324740) was used at a final concentration of 100 μM. The final concentration of DMSO was 1% in the assay buffer (0.05M Tris.HCl, 0.1M NaCl, 0.1M CaCl2, 0.0005% Brij-35, pH 7.5). The enzymatic reaction was started by addition of the enzyme and incubated at 25° C. for 30 minutes. After incubation, the reaction was stopped by addition of soybean trypsin inhibitor (Sigma T9003) at a final concentration of 50 μg/well. Fluorescence was measured using a Molecular Devices fluorescence plate reader using 380 nm excitation and 460 nm emission wavelengths.
A concentration response to each compound was performed and the effect of compound in each experiment was expressed as a percentage inhibition of the control enzyme fluorescence. Dose response curves were plotted and compound potency (IC50) was determined. Compounds were tested in at least two separate experiments.

Row | pIC50 | SMILES
1 | > 9.00 | Cc1c(-c2ccnn2-c2ccc(C#N)cc2)n(C(=O)N[C@@H](C)C(=O)N(C)CCN(C)C)c(=O)n1-c1cccc(C(F)(F)F)c1 [Example 20, 5-[2-(4-Cyano-phenyl)-2H-pyrazol-3-yl]-4-methyl-2-oxo-3-(3-trifluoromethyl-phenyl)-2,3-dihydro-imidazole-1-carboxylic acid {(S)-1-[(2-dimethylamino-ethyl)-methyl-carbamoyl]-ethyl}-amide]
2 | > 9.00 | Cc1c(-c2ccnn2-c2ccc(C#N)cc2)n(C(=O)N[C@H](c2ncc(CN(C)C)o2)C(C)C)c(=O)n1-c1cccc(C(F)(F)F)c1 [Example 21, 5-[2-(4-Cyano-phenyl)-2H-pyrazol-3-yl]-4-methyl-2-oxo-3-(3-trifluoromethyl-phenyl)-2,3-dihydro-imidazole-1-carboxylic acid [(S)-1-(5-dimethylaminomethyl-oxazol-2-yl)-2-methyl-propyl]-amide]
3 | > 9.00 | CC[C@H](NC(=O)n1c(-c2ccnn2-c2ccc(C#N)cc2)c(C)n(-c2cccc(C(F)(F)F)c2)c1=O)c1ncc(CN(C)C)o1 [Example 22, 5-[2-(4-Cyano-phenyl)-2H-pyrazol-3-yl]-4-methyl-2-oxo-3-(3-trifluoromethyl-phenyl)-2,3-dihydro-imidazole-1-carboxylic acid [(S)-1-(5-dimethylaminomethyl-oxazol-2-yl)-propyl]-amide]
4 | > 9.00 | Cc1c(-c2ccnn2-c2ccc(C#N)cc2)n(C(=O)NC2(c3ncc(CN(C)C)o3)CC2)c(=O)n1-c1cccc(C(F)(F)F)c1 [Example 23, 5-[2-(4-Cyano-phenyl)-2H-pyrazol-3-yl]-4-methyl-2-oxo-3-(3-trifluoromethyl-phenyl)-2,3-dihydro-imidazole-1-carboxylic acid [1-(5-dimethylaminomethyl-oxazol-2-yl)-cyclopropyl]-amide]
5 | > 9.00 | Cc1c(-c2ccnn2-c2ccc(C#N)cc2)n(C(=O)NC(C)(C)c2ncc(CN(C)C)o2)c(=O)n1-c1cccc(C(F)(F)F)c1 [Example 24, 5-[2-(4-Cyano-phenyl)-2H-pyrazol-3-yl]-4-methyl-2-oxo-3-(3-trifluoromethyl-phenyl)-2,3-dihydro-imidazole-1-carboxylic acid [1-(5-dimethylaminomethyl-oxazol-2-yl)-1-methyl-ethyl]-amide]
6 | > 9.00 | Cc1c(-c2ccnn2-c2ccc(C#N)cc2)n(C(=O)NC2(C)CCN(C(=O)CN(C)C)CC2)c(=O)n1-c1cccc(C(F)(F)F)c1 [Example 25, 5-[2-(4-Cyano-phenyl)-2H-pyrazol-3-yl]-4-methyl-2-oxo-3-(3-trifluoromethyl-phenyl)-2,3-dihydro-imidazole-1-carboxylic acid [1-(2-dimethylamino-acetyl)-4-methyl-piperidin-4-yl]-amide]
7 | > 9.00 | Cc1c(-c2ccnn2-c2ccc(C#N)cc2)n(C(=O)N[C@H]2CC[C@H](NC(=O)CN(C)C)CC2)c(=O)n1-c1cccc(C(F)(F)F)c1 [Example 26, 5-[2-(4-Cyano-phenyl)-2H-pyrazol-3-yl]-4-methyl-2-oxo-3-(3-trifluoromethyl-phenyl)-2,3-dihydro-imidazole-1-carboxylic acid [trans-4-(2-dimethylamino-acetylamino)-cyclohexyl]-amide]
8 | > 9.00 | Cc1c(-c2ccnn2-c2ccc(C#N)cc2)n(C(=O)N[C@H]2CC[C@H](CNC(=O)CN(C)C)CC2)c(=O)n1-c1cccc(C(F)(F)F)c1 [Example 27, 5-[2-(4-Cyano-phenyl)-2H-pyrazol-3-yl]-4-methyl-2-oxo-3-(3-trifluoromethyl-phenyl)-2,3-dihydro-imidazole-1-carboxylic acid {trans-4-[(2-dimethylamino-acetylamino)-methyl]-cyclohexyl}-amide]
9 | > 9.00 | Cc1c(-c2ccnn2-c2ccc(C#N)cc2)n(C(=O)N[C@@H](C)C(=O)N(C)C2CCN(C)CC2)c(=O)n1-c1cccc(C(F)(F)F)c1 [Example 28, 5-[2-(4-Cyano-phenyl)-2H-pyrazol-3-yl]-4-methyl-2-oxo-3-(3-trifluoromethyl-phenyl)-2,3-dihydro-imidazole-1-carboxylic acid {(S)-1-[methyl-(1-methyl-piperidin-4-yl)-carbamoyl]-ethyl}-amide]
10 | > 9.00 | Cc1c(-c2ccnn2-c2ccc(C#N)cc2)n(C(=O)N[C@H]2CC[C@H](C[N+](C)(C)C)CC2)c(=O)n1-c1cccc(C(F)(F)F)c1 [Example 29, (Trans-4-{[5-[2-(4-cyano-phenyl)-2H-pyrazol-3-yl]-4-methyl-2-oxo-3-(3-trifluoromethyl-phenyl)-2,3-dihydro-imidazole-1-carbonyl]-amino}-cyclohexylmethyl)-trimethyl-ammonium benzene sulfonate]
11 | > 9.00 | Cc1c(-c2ccnn2-c2ccc(C#N)cc2)n(C(=O)N[C@H]2CC[C@H](C[N+](C)(C)Cc3ccccc3)CC2)c(=O)n1-c1cccc(C(F)(F)F)c1 [Example 30, Benzyl-(trans-4-{[5-[2-(4-cyano-phenyl)-2H-pyrazol-3-yl]-4-methyl-2-oxo-3-(3-trifluoromethyl-phenyl)-2,3-dihydro-imidazole-1-carbonyl]-amino}-cyclohexylmethyl)-dimethyl-ammonium bromide]
12 | > 9.00 | CC[N+](C)(C)C[C@H]1CC[C@H](NC(=O)n2c(-c3ccnn3-c3ccc(C#N)cc3)c(C)n(-c3cccc(C(F)(F)F)c3)c2=O)CC1 [Example 31, (Trans-4-{[5-[2-(4-cyano-phenyl)-2H-pyrazol-3-yl]-4-methyl-2-oxo-3-(3-trifluoromethyl-phenyl)-2,3-dihydro-imidazole-1-carbonyl]-amino}-cyclohexylmethyl)-ethyl-dimethyl-ammonium benzene sulfonate]
13 | > 9.00 | Cc1c(-c2ccnn2-c2ccc(C#N)cc2)n(C(=O)NC2CC[N+](C)(C)CC2)c(=O)n1-c1cccc(C(F)(F)F)c1 [Example 32, 4-{[5-[2-(4-Cyano-phenyl)-2H-pyrazol-3-yl]-4-methyl-2-oxo-3-(3-trifluoromethyl-phenyl)-2,3-dihydro-imidazole-1-carbonyl]-amino}-1,1-dimethyl-piperidinium benzenesulfonate]
14 | 8.00 to 9.00 | Cc1c(-c2ccnn2-c2ccc(C#N)cc2)n(C(=O)N[C@@H]2CC[N+](C)(C)C2)c(=O)n1-c1cccc(C(F)(F)F)c1 [Example 33, (R)-3-{[5-[2-(4-Cyano-phenyl)-2H-pyrazol-3-yl]-4-methyl-2-oxo-3-(3-trifluoromethyl-phenyl)-2,3-dihydro-imidazole-1-carbonyl]-amino}-1,1-dimethyl-pyrrolidinium benzenesulfonate]
15 | > 9.00 | Cc1c(-c2ccnn2-c2ccc(C#N)cc2)n(C(=O)N[C@H]2CC[N+](C)(C)C2)c(=O)n1-c1cccc(C(F)(F)F)c1 [Example 34, (S)-3-{[5-[2-(4-Cyano-phenyl)-2H-pyrazol-3-yl]-4-methyl-2-oxo-3-(3-trifluoromethyl-phenyl)-2,3-dihydro-imidazole-1-carbonyl]-amino}-1,1-dimethyl-pyrrolidinium benzenesulfonate]
16 | > 9.00 | Cc1c(-c2ccnn2-c2ccc(C#N)cc2)n(C(=O)NC(C)C2CC[N+](C)(C)CC2)c(=O)n1-c1cccc(C(F)(F)F)c1 (stereo not shown) [Example 35, 4-(1-{[5-[2-(4-Cyano-phenyl)-2H-pyrazol-3-yl]-4-methyl-2-oxo-3-(3-trifluoromethyl-phenyl)-2,3-dihydro-imidazole-1-carbonyl]-amino}-ethyl)-1,1-dimethyl-piperidinium benzene sulfonate]
17 | > 9.00 | Cc1c(-c2ccnn2-c2ccc(C#N)cc2)n(C(=O)N[C@H]2C[C@H]3CC[C@@H](C2)[N+]3(C)C)c(=O)n1-c1cccc(C(F)(F)F)c1 [Example 36, (1S,3R,5R)-3-{[5-[2-(4-Cyano-phenyl)-2H-pyrazol-3-yl]-4-methyl-2-oxo-3-(3-trifluoromethyl-phenyl)-2,3-dihydro-imidazole-1-carbonyl]-amino}-8,8-dimethyl-8-azonia-bicyclo[3.2.1]octane benzene sulfonate]
18 | > 9.00 | Cc1c(-c2ccnn2-c2ccc(C#N)cc2)n(C(=O)N[C@@H]2C[C@@H]3C[N+](C)(C)C[C@@H]3C2)c(=O)n1-c1cccc(C(F)(F)F)c1 [Example 37, (3aS,5R,6aR)-5-{[5-[2-(4-Cyano-phenyl)-2H-pyrazol-3-yl]-4-methyl-2-oxo-3-(3-trifluoromethyl-phenyl)-2,3-dihydro-imidazole-1-carbonyl]-amino}-2,2-dimethyl-octahydro-cyclopenta[c]pyrrolium benzene sulfonate]
19 | > 9.00 | Cc1c(-c2ccnn2-c2ccc(C#N)cc2)n(C(=O)N[C@@H](C)c2cc[n+](C)cc2)c(=O)n1-c1cccc(C(F)(F)F)c1 [Example 38, 4-((S)-1-{[5-[2-(4-Cyano-phenyl)-2H-pyrazol-3-yl]-4-methyl-2-oxo-3-(3-trifluoromethyl-phenyl)-2,3-dihydro-imidazole-1-carbonyl]-amino}-ethyl)-1-methyl-pyridinium benzene sulfonate]
